Experimental data: patent publication US11958811B1, “1-[4,5-bis(4-bromophenyl)-1-hexyl-1H-imidazol-2-yl]-2-naphthol as an antimicrobial compound” (KING FAISAL UNIVERSITY, priority 2023, dated 2024)

Assays:
Format in all cases: cell-based
Details in all cases: after 10, 20, 40 and 60 minutes at all dilutions 1:100, 1:200, 1:400, 1:800
Escherichia coli = assay: Antimicrobial screening by agar dilution, E. Coli
Method: (§1) The antimicrobial properties of the 1-[4,5-bis(4-bromophenyl)-1-hexyl-1H-imidazol-2-yl]-2-naphthol was studied by the method of agar dilution. Test solutions of each compound was prepared in concentration of 1% using dimethylformamide as a solvent then they were diluted in physiological solution to obtain the final experimental dilutions 1:100, 1:200, 1:400, 1:800. The effect of these substances was compared with furacillin in a controlled study. The testing microbes used were gram positive bacteria Staphylococcus aureus, gram negative bacteria Pseudomonas aeruginosa and Escherichia coli and Candida albicans fungi were taken. The experiments used for this survey were meat-pentonlu agar (EPA) for cultivation of bacteria and Saburo environment for fungi. Each experiment used 1 ml of test solution on each plate 500 min. Add 2 drops of emulsified with microbes feel. All experimental samples were taken from the agar after 10, 20, 40, 60 minutes in the environment on the basis of Patrk planted. Bacteria were cultivated at a temperature of 37° C. for 1 day and the mushroom was kept in a thermostat for […] at a temperature of 28° C. Then results were checked.

Staphylococcus aureus = assay: Antimicrobial screening by agar dilution, St. Aereus
Method: as §1

Candida albicans = assay: Antimicrobial screening by agar dilution, Candida albicans
Method: as §1

Pseudomonas aeruginosa = assay: Antimicrobial screening by agar dilution, Ps. Aeroqonaza
Method: as §1

Measured: inhibition activity

CCCCCCn1c(-c2c(O)ccc3ccccc23)nc(-c2ccc(Br)cc2)c1-c1ccc(Br)cc1 [1-[4,5-bis(4-bromophenyl)-1-hexyl-1H-imidazol-2-yl]-2-naphthol]
highest inhibition activity: all assays above
